Each compound was assayed against DLK (Homo sapiens (Human), UniProt Q12852) (assay: DLK TR-FRET Inhibition Assay). Settings: N-terminally GST-tagged DLK (catalytic domain amino acid 1-520), MKK4 K131M substrate, 30 μM ATP; read-out: DLK HTRF Ki.
Format: biochemical
Method: DLK kinase reactions (20 μL) containing 5 nM N-terminally GST-tagged DLK (catalytic domain amino acid 1-520) (Carna Bioscience), 40 nM N-terminally HIS tagged MKK4 K131M substrate, and 30 μM ATP in kinase reaction buffer (50 mM HEPES, pH 7.5, 0.01% Triton X-100, 0.01% Bovine γ-Globulins, 2 mM DTT, 10 mM MgCl2 and 1 mM EGTA), and testing compound 1:3 serial diluted starting at 20 uM were incubated at ambient temperature for 60 minutes in 384 well OptiPlate (Perkin Elmer). To quench kinase reactions and detect phosphorylated MKK4, 15 μL of TR-FRET antibody mixture containing 2 nM anti-phosphorylated MKK4 labeled with Europium cryptate (Cisbio) and 23 nM anti-HIS labeled with D2 (Cisbio) in detection buffer (25 mM Tris pH 7.5, 100 mM NaCl, 100 mM EDTA, 0.01% Tween-20, and 200 mM KF) was added to the reaction mixture. The detection mixture was incubated for 3 hours at ambient temperature and the TR-FRET was detected with an EnVision multilabel plate reader (Perkin-Elmer) using the LANCE/DELFIA Dual Enh label from Perkin-Elmer (excitation filter: UV2 (TRF) 320 and emission filters: APC 665 and Europium 615).

Chain of DLK (Q12852 1-520): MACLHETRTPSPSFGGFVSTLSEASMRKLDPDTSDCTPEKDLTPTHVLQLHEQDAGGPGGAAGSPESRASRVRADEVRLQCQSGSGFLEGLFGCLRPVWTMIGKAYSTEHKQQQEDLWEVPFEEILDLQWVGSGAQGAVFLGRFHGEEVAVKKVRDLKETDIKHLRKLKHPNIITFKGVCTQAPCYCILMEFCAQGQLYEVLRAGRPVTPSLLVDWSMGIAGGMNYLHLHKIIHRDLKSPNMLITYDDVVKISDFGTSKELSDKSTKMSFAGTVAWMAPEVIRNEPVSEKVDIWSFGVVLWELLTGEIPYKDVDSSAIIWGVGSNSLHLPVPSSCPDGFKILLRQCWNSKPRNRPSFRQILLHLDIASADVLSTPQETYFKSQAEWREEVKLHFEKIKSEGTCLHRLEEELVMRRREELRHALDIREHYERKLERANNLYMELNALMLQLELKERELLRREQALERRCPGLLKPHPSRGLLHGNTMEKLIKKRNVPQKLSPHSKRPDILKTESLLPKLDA

Question: How did the Ki turn out when C[C@@H]1CCCN1c1nc(-c2cnc(N)nc2)nc2c1nc1n2CCOC1(C)C [Example 26, 5-[8,8-Dimethyl-1-((R)-2-methyl-pyrrolidin-1-yl)-5,6-dihydro-8H-7-oxa-2,4,4b,9-tetraaza-fluoren-3-yl]-pyrimidin-2-ylamine] was run?
Answer: 210 nM

Question: CC1CCN(c2nc(-c3cnc(N)nc3)nc3c2nc2n3CCOC2(C)C)C1 (stereo not drawn) [Example 27, 5-[8,8-Dimethyl-1-(3-methyl-pyrrolidin-1-yl)-5,6-dihydro-8H-7-oxa-2,4,4b,9-tetraaza-fluoren-3-yl]-pyrimidin-2-ylamine] was tested. Which Ki did it give?
Answer: 299 nM

Question: With CC1(C)OCCn2c1nc1c(N3CCC(C(F)(F)F)C3)nc(-c3cnc(N)nc3)nc12 (stereo not drawn) [Example 28, 5-[8,8-Dimethyl-1-(3-trifluoromethyl-pyrrolidin-1-yl)-5,6-dihydro-8H-7-oxa-2,4,4b,9-tetraaza-fluoren-3-yl]-pyrimidin-2-ylamine] as the compound, how does the Ki read?
Answer: 245 nM

Question: How did the Ki turn out when CC1(C)OCCn2c1nc1c(N3C[C@@H](F)[C@@H](F)C3)nc(-c3cnc(N)nc3)nc12 [Example 29, 5-[1-(cis-3,4-Difluoro-pyrrolidin-1-yl)-8,8-dimethyl-5,6-dihydro-8H-7-oxa-2,4,4b,9-tetraaza-fluoren-3-yl]-pyrimidin-2-ylamine] was run?
Answer: 297 nM

Question: How did the Ki turn out when Cc1c[nH]c2ncc(-c3nc(N4CCC5(COC5)C4)c4nc5n(c4n3)CCOC5(C)C)cc12 [Example 30, 8,8-Dimethyl-3-(3-methyl-1H-pyrrolo[2,3-b]pyridin-5-yl)-1-(2-oxa-6-aza-spiro[3.4]oct-6-yl)-5,6-dihydro-8H-7-oxa-2,4,4b,9-tetraaza-fluorene] was run?
Answer: 10.2 nM

Question: Which Ki does the source give for CC1(C)CN(c2nc(-c3cnc(N)nc3)nc3c2nc2n3CCOC2(C)C)C1 [Example 31, 5-[1-(3,3-Dimethyl-azetidin-1-yl)-8,8-dimethyl-5,6-dihydro-8H-7-oxa-2,4,4b,9-tetraaza-fluoren-3-yl]-pyrimidin-2-ylamine] here?
Answer: 424 nM

Question: Which Ki does the source give for Cc1c[nH]c2ncc(-c3nc(N4CC(O)C4)c4nc5n(c4n3)CCOC5(C)C)cc12 [Example 32, 1-[8,8-Dimethyl-3-(3-methyl-1H-pyrrolo[2,3-b]pyridin-5-yl)-5,6-dihydro-8H-7-oxa-2,4,4b,9-tetraaza-fluoren-1-yl]-azetidin-3-ol] here?
Answer: 13.1 nM

Question: How did the Ki turn out when CC1(C)OCCn2c1nc1c(N3CC4CCC3C4)nc(-c3cnc(N)nc3)nc12 (stereo not drawn) [Example 33, 5-[1-(2-Aza-bicyclo[2.2.1]hept-2-yl)-8,8-dimethyl-5,6-dihydro-8H-7-oxa-2,4,4b,9-tetraaza-fluoren-3-yl]-pyrimidin-2-ylamine] was run?
Answer: 90.3 nM

Question: With Cc1c[nH]c2ncc(-c3nc(N4CC5CCC4C5)c4nc5n(c4n3)CCOC5(C)C)cc12 (stereo not drawn) [Example 34, 1-(2-Aza-bicyclo[2.2.1]hept-2-yl)-8,8-dimethyl-3-(3-methyl-1H-pyrrolo[2,3-b]pyridin-5-yl)-5,6-dihydro-8H-7-oxa-2,4,4b,9-tetraaza-fluorene] as the compound, how does the Ki read?
Answer: 31.8 nM

Question: CC1(C)OCCn2c1nc1c(N3CC4CC3C4)nc(-c3cnc(N)c(Cl)c3)nc12 [Example 35, 5-[1-(2-Aza-bicyclo[2.1.1]hex-2-yl)-8,8-dimethyl-5,6-dihydro-8H-7-oxa-2,4,4b,9-tetraaza-fluoren-3-yl]-3-chloro-pyridin-2-ylamine] was tested. Which Ki did it give?
Answer: 235 nM

Question: CC1(C)OCCn2c1nc1c(N3CC4CC3C4)nc(-c3cnc(N)c(F)c3)nc12 [Example 36, 5-[1-(2-Aza-bicyclo[2.1.1]hex-2-yl)-8,8-dimethyl-5,6-dihydro-8H-7-oxa-2,4,4b,9-tetraaza-fluoren-3-yl]-3-fluoro-pyridin-2-ylamine] was tested. Which Ki did it give?
Answer: 444 nM

Question: For CC1(C)OCCn2c1nc1c(N3CC4CCC3C4)nc(-c3cnc4ccnn4c3)nc12 (stereo not drawn) [Example 37, 1-(2-Aza-bicyclo[2.2.1]hept-2-yl)-8,8-dimethyl-3-pyrazolo[1,5-a]pyrimidin-6-yl-5,6-dihydro-8H-7-oxa-2,4,4b,9-tetraaza-fluorene], which Ki is on record?
Answer: 663 nM

Question: How did the Ki turn out when CC1(C)OCCn2c1nc1c(N3CC4CC3C4)nc(-c3cnc4ccnn4c3)nc12 [Example 38, 1-(2-Aza-bicyclo[2.1.1]hex-2-yl)-8,8-dimethyl-3-pyrazolo[1,5-a]pyrimidin-6-yl-5,6-dihydro-8H-7-oxa-2,4,4b,9-tetraaza-fluorene] was run?
Answer: 280 nM

Question: CC1(C)OCCn2c1nc1c(N3CC(O)C3)nc(-c3cnc4[nH]cc(C(F)(F)F)c4c3)nc12 [Example 39, 1-[8,8-Dimethyl-3-(3-trifluoromethyl-1H-pyrrolo[2,3-b]pyridin-5-yl)-5,6-dihydro-8H-7-oxa-2,4,4b,9-tetraaza-fluoren-1-yl]-azetidin-3-ol] was tested. Which Ki did it give?
Answer: 6.79 nM

Question: For CC1(C)OCCn2c1nc1c(N3CC(O)C3)nc(-c3cnc4[nH]cc(Cl)c4c3)nc12 [Example 40, 1-[3-(3-Chloro-1H-pyrrolo[2,3-b]pyridin-5-yl)-8,8-dimethyl-5,6-dihydro-8H-7-oxa-2,4,4b,9-tetraaza-fluoren-1-yl]-azetidin-3-ol], which Ki is on record?
Answer: 5.91 nM

Question: Which Ki does the source give for COC1CN(c2nc(-c3cnc4[nH]cc(C#N)c4c3)nc3c2nc2n3CCOC2(C)C)C1 [Example 41, 5-[1-(3-Methoxy-azetidin-1-yl)-8,8-dimethyl-5,6-dihydro-8H-7-oxa-2,4,4b,9-tetraaza-fluoren-3-yl]-1H-pyrrolo[2,3-b]pyridin-3-carbonitrile] here?
Answer: 30.8 nM

Question: CC1(C)OCCn2c1nc1c(N3CCC4(COC4)C3)nc(-c3cnc4[nH]cc(C#N)c4c3)nc12 [Example 42, 5-[8,8-Dimethyl-1-(2-oxa-6-aza-spiro[3.4]oct-6-yl)-5,6-dihydro-8H-7-oxa-2,4,4b,9-tetraaza-fluoren-3-yl]-1H-pyrrolo[2,3-b]pyridin-3-carbonitrile] was tested. Which Ki did it give?
Answer: 4.97 nM

Question: CC1(C)OCCn2c1nc1c(N3CC4CC3C4)nc(-c3cnc(N)c(OC(F)F)c3)nc12 [Example 43, 5-[1-(2-Aza-bicyclo[2.1.1]hex-2-yl)-8,8-dimethyl-5,6-dihydro-8H-7-oxa-2,4,4b,9-tetraaza-fluoren-3-yl]-3-difluoromethoxy-pyridin-2-ylamine] was tested. Which Ki did it give?
Answer: 41.8 nM

Question: How did the Ki turn out when CC1(C)OCCn2c1nc1c(N3CC4CC3C4)nc(-c3cnc(N)c(C4CC4)c3)nc12 [Example 44, 5-[1-(2-Aza-bicyclo[2.1.1]hex-2-yl)-8,8-dimethyl-5,6-dihydro-8H-7-oxa-2,4,4b,9-tetraaza-fluoren-3-yl]-3-cyclopropyl-pyridin-2-ylamine] was run?
Answer: 621 nM

Question: For CC1(C)OCCn2c1nc1c(N3CC(F)C3)nc(-c3cnc4[nH]cc(C(F)(F)F)c4c3)nc12 [Example 45], which Ki is on record?
Answer: 9.87 nM

Question: For CC1(C)OCCn2c1nc1c(N3CC4CC3C4)nc(-c3cnc(N)nc3)nc12 [Example 46, 5-[1-(2-Aza-bicyclo[2.1.1]hex-2-yl)-8,8-dimethyl-5,6-dihydro-8H-7-oxa-2,4,4b,9-tetraaza-fluoren-3-yl]-pyrimidin-2-ylamine], which Ki is on record?
Answer: 130 nM

Question: Which Ki does the source give for CNc1ncc(-c2nc(N3CC4CC3C4)c3nc4n(c3n2)CCOC4(C)C)cn1 [Example 47] here?
Answer: 1300 nM

Question: Which Ki does the source give for Cc1cc(-c2nc(N3CC4CC3C4)c3nc4n(c3n2)CCOC4(C)C)cnc1N [Example 48, 5-(4-(2-azabicyclo[2.1.1]hexan-2-yl)-6,6-dimethyl-8,9-dihydro-6H-[1,4]oxazino[4,3-e]purin-2-yl)-3-methylpyridin-2-amine] here?
Answer: 992 nM

Question: With CC1(C)OCCn2c1nc1c(N3CCC4(COC4)C3)nc(-c3cnc(N)c(C(F)(F)F)c3)nc12 [Example 49, 5-[8,8-Dimethyl-1-(2-oxa-6-aza-spiro[3.4]oct-6-yl)-5,6-dihydro-8H-7-oxa-2,4,4b,9-tetraaza-fluoren-3-yl]-3-trifluoromethyl-pyridin-2-ylamine] as the compound, how does the Ki read?
Answer: 270 nM

Question: CC1(C)OCCn2c1nc1c(N3CC4(COC4)C3)nc(-c3cnc(N)nc3)nc12 [Example 50, 5-[8,8-Dimethyl-1-(2-oxa-6-aza-spiro[3.3]hept-6-yl)-5,6-dihydro-8H-7-oxa-2,4,4b,9-tetraaza-fluoren-3-yl]-pyrimidin-2-ylamine] was tested. Which Ki did it give?
Answer: 490 nM

Question: CC1(C)OCCn2c1nc1c(N3CC4(CCCO4)C3)nc(-c3cnc(N)nc3)nc12 [Example 51, 5-[8,8-Dimethyl-1-(5-oxa-2-aza-spiro[3.4]oct-2-yl)-5,6-dihydro-8H-7-oxa-2,4,4b,9-tetraaza-fluoren-3-yl]-pyrimidin-2-ylamine] was tested. Which Ki did it give?
Answer: 907 nM

Question: CC1(C)OCCn2c1nc1c(N3CC4(CCC4)C3)nc(-c3cnc(N)nc3)nc12 [Example 52, 5-[1-(2-Aza-spiro[3.3]hept-2-yl)-8,8-dimethyl-5,6-dihydro-8H-7-oxa-2,4,4b,9-tetraaza-fluoren-3-yl]-pyrimidin-2-ylamine] was tested. Which Ki did it give?
Answer: 515 nM

Question: For C[C@H]1CCCN1c1nc(-c2cnc(N)nc2)nc2c1nc1n2CCOC1(C)C [Example 53, 5-[8,8-Dimethyl-1-((S)-2-methyl-pyrrolidin-1-yl)-5,6-dihydro-8H-7-oxa-2,4,4b,9-tetraaza-fluoren-3-yl]-pyrimidin-2-ylamine], which Ki is on record?
Answer: 479 nM

Question: Which Ki does the source give for CC1CCC(C)N1c1nc(-c2cnc(N)nc2)nc2c1nc1n2CCOC1(C)C (stereo not drawn) [Example 54, 5-[1-(2,5-Dimethyl-pyrrolidin-1-yl)-8,8-dimethyl-5,6-dihydro-8H-7-oxa-2,4,4b,9-tetraaza-fluoren-3-yl]-pyrimidin-2-ylamine] here?
Answer: 284 nM

Question: Which Ki does the source give for C[C@@H]1CC[C@H](C)N1c1nc(-c2cnc(N)nc2)nc2c1nc1n2CCOC1(C)C [Example 55, 5-(4-((2R,5S)-2,5-dimethylpyrrolidin-1-yl)-6,6-dimethyl-8,9-dihydro-6H-[1,4]oxazino[4,3-e]purin-2-yl)pyrimidin-2-amine] here?
Answer: 371 nM

— patent US10131675B2 (Genentech, Inc., priority 2015, dated 2018)
